Source: publication PMC3128102, “A Single Sex Pheromone Receptor Determines Chemical Response Specificity of Sexual Behavior in the Silkmoth Bombyx mori” (PLoS Genetics, 2011)

Key:
[1] = molecular target: T1, PxOR1 coexpressed with PxOR83 (Plutella xylostella, UniProt B5MEK0); assay: electrophysiology, agonist-induced current in Xenopus oocytes; format: cell-based; details: read-out: 50% effective concentration
T1 construct: coexpressed in Xenopus oocytes; heteromeric OR complex; with Odorant receptor coreceptor
T1 sequence (B5MEK0 1-422): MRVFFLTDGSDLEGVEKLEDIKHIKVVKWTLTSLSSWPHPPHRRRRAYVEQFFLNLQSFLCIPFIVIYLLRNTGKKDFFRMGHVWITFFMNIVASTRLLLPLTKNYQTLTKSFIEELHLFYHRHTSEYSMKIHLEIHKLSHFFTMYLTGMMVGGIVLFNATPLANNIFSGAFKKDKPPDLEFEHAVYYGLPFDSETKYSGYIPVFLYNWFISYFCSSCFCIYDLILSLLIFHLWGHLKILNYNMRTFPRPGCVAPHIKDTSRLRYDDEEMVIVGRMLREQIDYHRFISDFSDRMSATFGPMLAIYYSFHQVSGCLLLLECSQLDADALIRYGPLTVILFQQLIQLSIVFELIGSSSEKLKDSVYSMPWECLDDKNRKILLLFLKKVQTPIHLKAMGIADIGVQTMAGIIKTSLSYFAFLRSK
T1 sequence (D0EZE1 1-471 partner): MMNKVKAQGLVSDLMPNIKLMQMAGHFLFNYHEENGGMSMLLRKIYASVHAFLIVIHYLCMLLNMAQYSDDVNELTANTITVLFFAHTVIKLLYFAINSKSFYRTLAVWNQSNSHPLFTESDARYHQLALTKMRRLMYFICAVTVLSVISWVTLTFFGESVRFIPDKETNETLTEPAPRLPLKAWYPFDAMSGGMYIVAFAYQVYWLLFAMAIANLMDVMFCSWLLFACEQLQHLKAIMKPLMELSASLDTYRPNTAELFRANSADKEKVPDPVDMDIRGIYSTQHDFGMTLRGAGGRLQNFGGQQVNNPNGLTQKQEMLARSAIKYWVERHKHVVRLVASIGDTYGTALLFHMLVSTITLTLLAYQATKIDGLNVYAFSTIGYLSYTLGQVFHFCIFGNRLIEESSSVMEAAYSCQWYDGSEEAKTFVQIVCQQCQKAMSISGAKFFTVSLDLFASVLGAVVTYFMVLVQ

[2] = molecular target: T2, PxOR1 coexpressed with BmOR2 (Plutella xylostella, UniProt B5MEK0); assay: as above; format: cell-based; details: PxOR1 with Bombyx mori co-receptor BmOR2, applied sequentially to same oocyte, n = 10, read-out: 50% effective concentration
T2 construct: coexpressed in Xenopus oocytes; mixed-species heteromeric OR complex, PxOR1 of Plutella xylostella with BmOR2 of Bombyx mori; with Odorant receptor coreceptor (Bombyx mori)
T2 sequence (B5MEK0 1-422): T1 sequence (B5MEK0 1-422)
Text: electrophysiology, agonist-induced current in Xenopus oocytes on PxOR1 coexpressed with BmOR2 | PxOR1 with PxOR83 and PxOR1 with BmOR2, respectively

EC50 [1]: 0.42 µM | EC50 [2]: 1.2 µM
SMILES: CCCC/C=C\CCCCCCCCCC=O [Z11-16:Ald, (Z)-11-hexadecenal]
